Reference: ChEMBL document CHEMBL3301472, “MMV Malaria Box HIV and cytotoxicity screening”

Tests used:
Format in all cases: toxicity, cell-based
[1] = MMV: MTT Cytotoxicity Assay Day 7 pi of Assay #6 (compound washed out Day 1 pi), U87-CD4-CCR5 cells, % cell death @ 5mM compound; details: human, u87-cd4-ccr5, 5000 µM
[2] = MMV: MTT Cytotoxicity Assay Day 7 pi of Assay #7 (compound washed out Day 1 pi), U87-CD4-CXCR4 cells, % cell death @ 5mM compound; details: human, u87-cd4-cxcr4, 5000 µM
[3] = MMV: MTT Cytotoxicity Assay Day 7 pi of Assay #10 (NO washout), U87-CD4-CCR5 cells, % cell death @ 5mM compound; details: human, u87-cd4-ccr5, 5000 µM
[4] = MMV: MTT Cytotoxicity Assay Day 7 pi of Assay #11 (NO washout), U87-CD4-CXCR4 cells, % cell death @ 5mM compound; details: human, u87-cd4-cxcr4, 5000 µM
[5] = MMV: MTT Cytotoxicity Assay Day 3 pi, U87-CD4-CXCR4 cells, % cell death @ 5mM compound; details: human, u87-cd4-cxcr4, 5000 µM
[6] = MMV: MTT Cytotoxicity Assay Day 3 pi, U87-CD4-CCR5 cells, % cell death @ 5mM compound; details: human, u87-cd4-ccr5, 5000 µM

Structure (SMILES) | % Cell Death [1] | % Cell Death [2] | % Cell Death [3] | % Cell Death [4] | % Cell Death [5] | % Cell Death [6]
Cc1cc(N2CCN(C3CCCC3)CC2)n2c(nc3ccccc32)c1C#N | 48 | -24 | 35 | -3 | 44 | 35
Cc1sc(NC(=O)c2ccccc2)c(C(c2cccs2)N2CCN(c3ccccc3)CC2)c1C (stereo not given) | -19 | 4 | 95 | -15 | 45 | -1
O=C1CC(O)(C(F)(F)C(F)(F)F)Oc2ccccc21 (stereo not given) | 4 | -15 | 17 | 35 | 32 | -14
COc1cccc(C(=O)Nc2ccc(-c3nc4ccccc4[nH]3)cc2)c1 | 3 | 7 | 34 | 35 | 39 | 27
CCOc1cc(Br)c(C(C)NC(=O)c2cccc(OC)c2)cc1OCC (stereo not given) | 13 | 11 | 28 | -7 | -7 | -32
COc1ccc2sc(N(Cc3cccnc3)C(=O)c3ccc(C#N)cc3)nc2c1 | 2 | -25 | 2 | -31 | 29 | -25
CCc1ccc(CNCC(O)c2ccccc2)cc1.Cl (stereo not given) | -3 | 28 | 2 | 38 | 37 | -25
CCOc1c(Br)cc(C2C(C(=O)OC)=CN(C)C=C2C(=O)OC)cc1OC | -1 | 19 | 30 | 30 | 21 | 30
Cl.N=c1n(CCN2CCCCC2)c2ccccc2n1CC(O)c1cccc(Br)c1 (stereo not given) | 10 | -20 | 11 | 8 | 27 | 2
FC(F)(F)c1ccc(Nc2nnnc3ccccc23)cc1 | 44 | -10 | 121 | 90 | 28 | 67
Cc1ccc(Cn2c(N3CCC(C(=O)NCc4cccs4)CC3)nc3ccccc32)cc1 | 12 | 58 | 18 | 78 | 4 | 5
CN(N=O)C1=C(NC2CCCCC2)C(=O)c2ccccc2C1=O | -53 | 36 | 30 | 15 | 45 | 41
O=C(NCCCN1CCC(N2CCCCC2)CC1)C1=Cc2cc(Br)ccc2OC1 | 31 | -28 | 14 | -57 | 10 | 52
Cc1cccc(-n2ncc3c(O)nc(-n4nc(C)cc4NC(=O)c4cc5ccccc5o4)nc32)c1 | 23 | 1 | 23 | 82 | 39 | 6
O=C(Nc1ccc(C23CC4CC(CC(c5ccccc5)(C4)C2)C3)cc1)c1cccs1 | 109 | 98 | 77 | 109 | 95 | 107
COc1ccc(N2CCN(C(CNC(=O)CC(C)(C)C)c3ccc4c(c3)OCO4)CC2)cc1 (stereo not given) | 6 | 22 | 44 | 37 | 38 | -2
COC(=O)c1ccc(Cl)c2c1C1C=CCC1C(c1cccc3ccccc13)N2 (stereo not given) | -5 | -20 | -21 | -34 | 40 | -6
OC(CNC1CCCCC1)Cn1c2ccccc2c2ccccc21 (stereo not given) | 13 | -20 | 35 | -3 | 14 | -3
COc1ccc(CCN2C(=O)c3[nH]nc(-c4cc(Cl)c(C)cc4O)c3C2c2ccccc2F)cc1 (stereo not given) | -35 | -18 | 47 | -26 | 32 | 19
CCOc1ccc(Nc2ccnc3cc(Cl)ccc23)cc1 | 20 | 47 | 72 | -19 | 78 | 35
COc1ccc(CNC(=O)c2cc3c(=O)n4ccccc4nc3n(CCc3ccccc3)c2=N)cc1 | -17 | -14 | 0 | 49 | 37 | 14
CCCCOc1ccc(C(=O)Nc2cc(C)on2)cc1 | -17 | -14 | 4 | 33 | 31 | 54
OC(CNC1CCCC1)Cn1c2ccccc2c2ccccc21 (stereo not given) | 2 | -15 | 7 | -3 | 31 | 10
Oc1ccc(Cl)cc1CNc1nc2ccccc2[nH]1 | 10 | -38 | -8 | 24 | 10 | -44
Oc1ccc2ccccc2c1CNc1nc2ccccc2[nH]1 | -27 | -22 | 36 | 42 | 32 | 53
Brc1ccc(Nc2nc3ccccc3nc2Nc2ccc(Br)cc2)cc1 | -14 | -10 | 28 | -26 | 20 | 15
CC1CC2=C(CC1CNCCCN(C)C)C(C)(C)CCC2 (stereo not given) | -9 | 23 | 19 | -30 | 36 | -1
CC1CN(C(=O)c2sc3ccccc3c2Cl)CC(C)O1 (stereo not given) | 7 | 45 | 124 | 105 | 47 | 107
Cc1cc(=O)oc2c1ccc1oc(C(=O)c3ccccc3)c(C)c12 | 4 | -3 | 35 | -19 | 29 | 10
COc1cccc(O)c1CN1CCC2(CCCN(Cc3ccc(F)cc3)C2)C1 (stereo not given) | -1 | 21 | 7 | 6 | -7 | -63
